Residues, ends and D or L forms follow the SMILES beside them.
`CN(CC(=O)Nc1cccc(-c2cc(-c3ccccc3O)nc(NC(=O)c3cccs3)c2C#N)c1)C(=O)OC(C)(C)C` gave a melting point of 143 to 149 °C. Compound `Cc1ccc(S(=O)(=O)NC(C)(C)C(C)C)cc1` has a melting point of 80 to 89 °C. With `CC(=O)Nc1cccc2c1C(=O)c1c-2n[nH]c1-c1ccccc1` the melting point was greater than 300 °C. `O=C(O)C(Cl)C(=O)CCl` (stereo not given) gave a melting point of 53 to 54 °C. `COc1cccc(OC)c1C(=O)Nc1nnc(-c2cccc(O)c2)s1` gave a melting point of 243 to 245 °C. For `COc1cc(CC(C)(C)NC(=O)c2ccc(Cl)nc2)cc2c1OC(C)(C)C2`, the melting point was 118 to 119 °C. Compound `Cc1cccc(-c2nc(Cl)cc(Cl)n2)c1` has a melting point of 80 to 81 °C. `COc1cccc2cc(CCl)oc12` showed a melting point of 44.5 to 45 °C. Compound `CCOC(COc1cccc2c1OCCO2)OCC` has a melting point of 73.1 °C. `O=C(O)c1cscc1Br` showed a melting point of 157 to 158 °C. With `C1=CCC2=C3C(=NC2=C1)SCCC3CNCc1ccccc1` (stereo not given) the melting point was 118 °C. `CC1=C(c2ccccc2)C(=O)N(C(C)(C)C(O)C(C)C)CO1` (stereo not given) showed a melting point of 42 to 54 °C. Compound `Cc1ncc2n1-c1ccccc1N(c1ccccc1)C(=O)C2` has a melting point of 217 to 220 °C. For `O=C(O)c1ccc(COc2ccc3cc(-c4csc(-c5ccccc5)n4)ccc3c2Br)cc1`, the melting point was 268 to 270 °C. `Cc1cccnc1NC(=O)OC(C)(C)C` gave a melting point of 132 to 133 °C. For `COc1cc([N+](=O)[O-])ccc1-c1cnn(C)c1`, the melting point was 132 to 134 °C. Work on `COC(=O)CCc1nsc2ccc(-n3c(=O)cc(C(F)(F)F)n(C)c3=O)cc12` yielded a melting point of 176 to 178 °C. `C1=C(c2ccccc2)CCN(CCCCc2ccncc2)C1` showed a melting point of 89 to 90 °C. For `Brc1oc2ccc(Cc3nnn[nH]3)cc2c1-c1ccccc1`, the melting point was 215 to 217 °C. `CC(C)(C)c1cc(-c2cc(-c3ccc(C(=O)O)cc3)ccc2OCCO)ccc1N1CCCC1` gave a melting point of 223 °C. `Cc1ccc(C(=O)O)c(Sc2nc(C)c(CC(=O)O)s2)n1` gave a melting point of 223 to 225 °C. `CS(=O)c1ccc(OCc2ccccc2)c(C=O)c1` (stereo not given) showed a melting point of 103 to 104 °C. Work on `Sc1ccc(-c2ccc(-c3ccc(S)c(S)c3)cc2)cc1S` yielded a melting point of 171 to 172 °C. In the case of `CCC(O)(CC)Cc1ccc(NC(=O)OCc2ccccc2)cc1`, the melting point is reported as 99 to 100 °C. `Cc1c(C(=O)Nc2ccc(OCC(C)(C)C)c(C#N)c2)cnn1C` showed a melting point of 187 to 188 °C. `Clc1cccc(CN(c2ncnc3[nH]ncc23)C2CCCC2)c1` showed a melting point of 186 to 187 °C. Compound `Fc1cccnc1C#CCCc1nc2ccccc2o1` has a melting point of 86 to 88 °C. Work on `O=C(OCCOCc1ccccc1)c1cc(Oc2ccc(C(F)(F)F)cc2Cl)ccc1[N+](=O)[O-]` yielded a melting point of 85 °C. `CC(C)(C)OC(=O)CN1CCC(CNC(=O)N2CCN(C3CCN(C(=O)OC(C)(C)C)CC3)CC2)CC1` showed a melting point of 131 to 133 °C. Compound `O=S(=O)(Nc1cnc(-n2ccnc2)nc1NCc1ccc2c(c1)OCO2)c1ccc(Cl)cc1` has a melting point of 206 to 207 °C. `CC12CCC3c4cc(C=O)c(OCc5ccccc5)cc4CCC3C1CCC2OCc1ccccc1` (stereo not given) showed a melting point of 145 to 147 °C. In the case of `NC(=O)c1ccc(C(c2ccccc2)(c2ccccc2)c2ccccc2)cn1`, the melting point is reported as 239 to 240 °C. For `CCOC(=O)Cc1nn(Cc2ccc(Br)c(Cl)c2)c(=S)c2ccccc12`, the melting point was 124 to 126 °C. `O=C(NCc1cc[nH]n1)c1ccnc(N2CCN(Cc3ccc(F)cc3)C2=O)c1` gave a melting point of 178 to 180 °C. Work on `C#CCn1c(-c2c(Cl)cccc2Cl)nc(-c2ccncc2)c1-c1ccc(Cl)cc1` yielded a melting point of 169 to 172 °C. `CCc1c(-c2ccc(OC)cc2)c2cc(C(C)=O)c3cccc1n32` gave a melting point of 73 to 75 °C. In the case of `O=C(NCCO)/C(=C/c1ccc(Cl)cc1)NC(=O)c1ccc(OCCc2ccc(F)cc2)cc1`, the melting point is reported as 60 to 63 °C. `CN(C)CC#Cc1cc(CN2CCOCC2)cc2c(=O)c(C(=O)NCc3ccc(Cl)cc3)cn(C)c12` showed a melting point of 154 to 157 °C. For `N#Cc1cccc(-c2ccc(=O)n(Cc3cccc(-c4ncc(O)cn4)c3)n2)c1`, the melting point was 245 to 248 °C. In the case of `COc1c(C)c(NC(=O)CC(C)(C)C)c2c(c1C)C(c1ccc(C(C)C)cc1)C(C)(C)O2` (stereo not given), the melting point is reported as 140 to 141 °C. In the case of `CCCCCC1=CCC(c2cc(F)cc(F)c2)C=C1` (stereo not given), the melting point is reported as 31 °C. Compound `CCOc1cn(C2CC(O)C(CO)O2)c(=O)[nH]c1=O` (stereo not given) has a melting point of 179 to 181 °C. In the case of `IC(I)=C(I)Cn1nnc(-c2ccccc2)n1`, the melting point is reported as 188 °C. `Cc1cccc2cc3c(=O)n([C@@H](C)c4ccccc4)cc(C(=O)O)c3nc12` gave a melting point of 234 to 235 °C. `CCc1cc(=O)c2cc(C(C)C(=O)O)ccc2o1` (stereo not given) gave a melting point of 128 °C. Compound `C=C(c1cccnc1)c1c(CC(=O)OC)[nH]c2ccccc12` has a melting point of 154 to 157 °C. `CNC(=O)c1cn(C)c(=O)cc1Nc1ccc(I)cc1F` showed a melting point of 252 to 254 °C. For `CCCCc1nc2cc(Cl)c(Cl)cc2n1Cc1ccc(C(=O)O)cc1`, the melting point was 244 to 246 °C. Compound `CCc1cn(C2CC(O)C(CNCc3ccccc3Br)O2)c(=O)[nH]c1=O` (stereo not given) has a melting point of 144 to 146 °C. `CCNc1nc(C)c(-c2ccnc(Nc3cccc(S(=O)(=O)NCCO)c3)n2)s1` gave a melting point of 124 to 125 °C. For `CC(=O)OCc1c(Br)cccc1N1CCc2c(cc3n2CCCC3)C1=O`, the melting point was 176 to 178 °C. For `COc1ccc(-c2nc(-c3ccc(Cl)c(Cl)c3)ncc2C(=O)N2CCOCC2)cc1OC`, the melting point was 181 °C. With `CCCC(CCC)CCCC(N)=O` the melting point was 44 °C. In the case of `CC(=O)c1c[nH]c2nccc(-c3ccccc3)c12`, the melting point is reported as greater than 210 °C. With `N#Cc1c(N)cccc1Sc1cccc(N)c1` the melting point was 99 to 100 °C. With `COc1ccc(OC2COc3ccc(OCc4ccc5ccccc5n4)cc3C2O)cc1` (stereo not given) the melting point was 131 to 132 °C. Compound `COc1ccc(C(=O)OCc2ccccc2)cc1NC(=S)Nc1cc(Cl)cc(Cl)c1` has a melting point of 144 to 145 °C. With `C#CCOC(=O)C1=C(C)N(C)C(C)=C(C(=O)OCC#C)C1c1cccc(C(F)(F)F)c1` the melting point was 163 °C. For `NC(=O)C(c1ccccc1)N1C(=O)c2ccccc2C1=O` (stereo not given), the melting point was 218 °C. For `Cc1sc(-c2ccccc2)nc1COc1cc(COc2ncccc2C#N)on1`, the melting point was 135 to 136 °C. Work on `COc1ccc(CCCCNC(=O)CCl)cc1` yielded a melting point of 99 to 100 °C. In the case of `O=C1NC(=O)C(c2ccc3cc(-c4ccc(O)c(C56CC7CC(CC(C7)C5)C6)c4)ccc3c2)S1` (stereo not given), the melting point is reported as 312 to 314 °C. With `CCCCCS(=O)(=O)NC(=O)CCc1ccc(OCCCOC)cc1Oc1ncc(C(F)(F)F)cc1Cl` the melting point was 115 °C. Work on `NCCC1CCc2ccc3c(c21)NC(=O)CO3` (stereo not given) yielded a melting point of 128 to 134 °C. `CCCOc1nc(N)nc(-c2ccccc2)c1-c1ccc(=O)n(C(C)C)n1` showed a melting point of 128 to 129 °C. Compound `O=C1NC(=O)c2c1c(-c1ccccc1Cl)cc1c2c(Br)c(CO)n1CCCO` has a melting point of 203 to 205 °C. With `Cn1c(=O)sc2ccc(C(c3ccc(C#N)cc3)n3cncn3)cc21` (stereo not given) the melting point was 122 to 125 °C. For `C#CCC(C(=COC)c1cccnc1)c1ccc(Cl)cc1Cl` (stereo not given), the melting point was 96 to 97 °C. For `CC(C)(CNC1(c2ccccc2Cl)C(=O)Nc2ccc(Cl)cc21)NC(=O)OC(C)(C)C` (stereo not given), the melting point was 164 °C. In the case of `N#CC(C(=O)c1ccc(Cl)cc1)=C1CCCN1Cc1ccc(Cl)nc1`, the melting point is reported as 142 to 144 °C. With `COc1cccc(C(O)CN(C)Cc2sc3c(=O)c(C(=O)NCc4ccc(Cl)cc4)cn(C)c3c2COCC[Si](C)(C)C)c1` (stereo not given) the melting point was 150 to 152 °C. `CCC(=O)C1=C(O)CC(c2ccc3c(c2)OCO3)CC1=O` (stereo not given) showed a melting point of 129 °C. `Clc1ccc(-c2csc(-c3cnccc3Cl)n2)cc1` showed a melting point of 149 to 150 °C. In the case of `COc1nc(C)c(C)nc1NC(=S)N1CCN(c2cc(C)cc(C)c2)CC1`, the melting point is reported as 160 to 162 °C. For `O=C(NCc1ccccc1)c1ccccc1-c1ccccc1CNS(=O)(=O)c1cccc(F)c1`, the melting point was 147 °C. `O=C(Nc1cc(C(F)(F)F)on1)C(Cl)(Cl)Cl` gave a melting point of 114 °C. For `NCc1cc(-c2ccc(Cl)cc2)no1`, the melting point was 81 °C. In the case of `CCOc1ccccc1-c1oc2c(C(=O)OCCO)cccc2c(=O)c1C`, the melting point is reported as 143 to 144 °C. `CCCCN1C(=O)NC(Cc2ccccc2)C1=O` (stereo not given) gave a melting point of 143 °C. For `S=C1CNC(=S)c2cc(Cl)ccc2N1`, the melting point was 273 to 274 °C. `Cn1nc(-c2c(F)cccc2Cl)nc1-c1ccc(OCc2ccc(C(F)(F)F)cc2Cl)c(Cl)c1` gave a melting point of 156 to 159 °C. For `CC(C)(C)NC(=O)[C@@H]1C[C@H](Cl)CN1C(=O)[C@@H](O)[C@H](Cc1ccccc1)N(Cc1ccccc1)Cc1ccccc1`, the melting point was 64 to 67 °C. `COC(=O)C(Cc1ccccc1)NC(=O)C(CC(=O)O)NC(=O)CN` (stereo not drawn) (H-Gly-Asp-Phe-OMe; configuration not given here) showed a melting point of 233 to 235 °C. `OCCCC#Cc1ccc2ccccc2c1` showed a melting point of 37 to 38 °C. Work on `Cc1c(-c2ccccc2)[nH]c(N2CCCC2=O)c1C#N` yielded a melting point of 140 to 141 °C. Work on `NNC(=O)c1cc2c(s1)-c1ccccc1OC2c1ccccc1` (stereo not given) yielded a melting point of 238 to 239 °C. Work on `CC(N1C(=O)C(=O)N(c2ccc(Cl)cc2)C1=S)C(C)(C)C` (stereo not given) yielded a melting point of 199 to 200 °C. Work on `CN1CCN(c2ncnc3oc(C4=CC=CN(N5CCOCC5)C4)c(-c4ccccc4)c23)CC1` yielded a melting point of 255 to 257 °C. `CC(C(=O)N(C)C)n1ccc(-c2cccs2)n1` (stereo not given) showed a melting point of 95 to 97 °C. For `CCS(=O)(=O)c1ccc(Oc2ccc(Cl)c(Cl)c2)nc1C#N`, the melting point was 150 to 151 °C. `O=C(/C=C1/c2ccccc2N(C(=O)c2ccc(NC(=O)c3ccccc3-c3ccccc3)cc2)CCC1(F)F)NCc1ccccc1` showed a melting point of 189 to 192 °C. Compound `Cn1cnnc1C(CCl)(c1ccc(Cl)cc1)c1ccc2c(c1)c(-c1cccc(Cl)c1)cc(=O)n2C` (stereo not given) has a melting point of 260 °C. With `CCOC(=O)COc1ccc(Cn2c(-c3ccc(OC)cc3)c(C)c3cc(OCc4ccccc4)ccc32)cc1` the melting point was 90 to 96 °C. Work on `COP(=O)(COC1C=CC(n2cnc3c(N)ncnc32)O1)OC` (stereo not given) yielded a melting point of 146 to 149 °C. Work on `C#Cc1ccc2c(c1)C=C(C(=O)O)C(C(F)(F)F)O2` (stereo not given) yielded a melting point of 198 to 200 °C. For `CCNC(=O)[C@@H]1CCCN1C(=O)[C@H](C)NC(=O)C1CCCCC1`, the melting point was 190 to 192 °C. For `OC1(c2cn(-c3ccc(Br)cc3)nn2)CN2CCC1CC2` (stereo not given), the melting point was 214 °C. `CCOC(=O)C(=O)Nc1cc(OC)cc(NC(=O)C(=O)OCC)n1` showed a melting point of 155 to 156 °C. In the case of `Cn1ncc2[nH]c3c(Br)cccc3c(=O)c21`, the melting point is reported as 287 °C. Compound `Fc1cccc2nc(S)oc12` has a melting point of 232 to 234 °C.

Reference: a melting point compilation (Tetko et al.; mined from patent text by program, amines drawn as free bases though some values may be those of a salt)
